Reference: patent US11649228B2, “Zinc indicators for cellular imaging” (The Board of Regents of the University of Texas System, priority 2018, dated 2023)

Legend:
MIN-6 cells = experiment: Correlation of ZIGIR-2 labeling with insulin immunofluorescence; type: cell-based, mouse; settings: wide-field microscopy
Experimental: Confocal imaging of ZIGIR-2 labeled MIN-6 cells appeared to be heterogenous, with numerous ZIGIR-2 positive puncta in some cells while few in others (FIG. 6B). The MIN-6 cell is a transformed β-cell line derived from a mouse insulinoma. […] To investigate how ZIGIR-2 staining correlates with the distribution of insulin granules, insulin immunofluorescence was performed on the same MIN-6 cells after ZIGIR-2 imaging. […] To further analyze MIN-6 cells that were differentially labeled with ZIGIR-2, and to address whether ZIGIR-2 staining correlated with other cellular organelles, MIN6 cells were separated into ZIGIR-2-High and ZIGIR-2-Low subsets based on ZIGIR-2 fluorescence intensity using fluorescence-activated cell sorting (FACS; FIG. 7E). The sorted cells were then compared by immunofluorescence using antibodies against insulin, NPC-1 (a marker protein of late endosome/lysosome; Patel et al., 1999 and Higgins et al., 1999), or GM130 (a Golgi marker protein; Nakamura et al., 1995). […]
To correlate the intensity of ZIGIR-2 labeling and cellular insulin content by imaging, MIN-6 cells were first labeled and seeded on a 35 mm MatTek glass dish with ZIGIR-2. Cells were then imaged on a wide field fluorescence microscope (Axiovert 200, Carl Zeiss) equipped with an EMCCD camera (iXon 897, Andor) through a 40× oil objective. […]

[1] = system: T47D human breast cancer cells, H1299 lung carcinoma and HEK293 human embryonic kidney cells; experiment: ZIGIR-2 imaging in cells not known to contain Zn^2+ rich secretory granules; type: cell-based
Experimental: To better understand the granular labeling specificity of ZIGIR-2, a number of mammalian cells were imaged that are not known to contain Zn^2+ rich secretory granules. These included T47D human breast cancer cells, H1299 lung carcinoma and HEK293 human embryonic kidney cells. […] However, after adding Zn/pyrithione, distinct ZIGIR-2 positive spots emerged in these cells (FIG. 8B). Subsequently, LysoTracker Green (LTG), an acidotropic fluorescent tracer based on BODIPY dye, was added to label acidic granules.
MIN-6 β cells were cultured as previously described (Li et al., 2011). HEK293 cells were cultured in DMEM medium supplemented with 10% FBS and 1% Penicillin/Streptomycin. T47D cells were cultured in RPMI-1640 medium supplemented with 10% FBS, 0.5% non-essential amino acids, 1 mM sodium pyruvate, 10 μg/mL geneticin and 0.01 mg/mL insulin. H1299 cells were cultured in RPMI-1640 medium supplemented with 10% FBS. All cells were maintained at 37° C. with 5% CO2. For cell imaging, cells were seeded in 35-mm petri dishes with glass bottoms (MatTek) and cultured for ˜24 hours to reach ˜50% confluence. Prior to labeling, cells were washed with a secretion assay buffer (SAB) containing 114 mM NaCl, 4.7 mM KCl, 1.2 mM KH2PO4, 2.5 mM CaCl2, 1.16 mM MgSO4, 3 mM glucose, and 20 mM Hepes (pH 7.4). […] ZIGIR colocalization with LysoTracker Green was analyzed and quantified with JACoP plugin of ImageJ.

[2] = system: human islet endocrine cells; experiment: Flow cytometry analysis and sorting of human islet cells with ZIGIR-2; type: cell-based; settings: ZIGIR-2, HPi2 and TM4SF4 labeling
Source text: Thus far the majority of studies on ZnT8 and Zn^2+ signaling have been carried out in mouse islet cells, and less is known about the expression of ZnT8 and Zn^2+ distribution in human islet endocrine cells. To analyze granular Zn^2+ activity in human islets by flow cytometry, the inventors dispersed human islets into single cells and sequentially labeled them with ZIGIR-2 and antibodies reactive towards human pancreatic endocrine cells and α-cells (FIG. 12A), including the HPi2 antibody (Dorrell et al., 2008) and an antibody of a tetraspanin family member protein TM4SF4 (Muraro et al., 2016), respectively. The islet endocrine cells (HPi2+, FIG. 13) contained a subset of cells showing high ZIGIR-2 signal and low TM4SF4 expression (P1 subset, FIG. 12B). Immunofluorescence analysis of the sorted cells confirmed that the P1 subset was highly enriched with human β-cells (91%), together with a small percent of δ-cells (FIG. 12C). […] They obtained similar flow cytometry results from different human donors and confirmed high enrichments of β-cell or α-cell in P1 or P2 subset (including P2a and P2b), respectively (FIG. 14). […] In addition to containing more glucagon granules, P2a cells might also express more ZnT8 protein than P2b. Future studies using more quantitative techniques such as western blot should help address the issue.

CN(C)c1ccc2c(-c3ccc(NCCN(CCc4ccccn4)Cc4ccccn4)cc3C(=O)[O-])c3ccc(=[N+](C)C)cc-3oc2c1 [ZIGIR-2]
Pearson's R value of cellular ZIGIR-2 intensity versus insulin immunofluorescence (MIN-6 cells): 0.79±0.05 | overlap of ZIGIR-2 positive puncta with LysoTracker Green marked granules ([1]; after Zn/pyrithione): overlapped remarkably well | fluorescence signal in basal SAB buffer ([1]; same dye loading and imaging conditions as MIN6 cells): barely any ZIGIR-2 fluorescence signal was detected | α-cell purity of sorted P2a and P2b subsets [2]: > 95% | β-cells in sorted P1 subset [2]: 91%
